{
  "source": "patent US20230292758A1",
  "about": "“COMPOSITIONS AND METHODS FOR CONTROLLLING FUNGAL DISEASES IN PLANTS” (priority 2020, published 2023)",
  "key": {"[1]": {"assay": "Relative lipopeptide levels in supernatants by LC-MS", "assay_type": "physicochemical", "conditions": "Example 4", "protocol": "Bacillus subtilis QST713 WB and Bacillus subtilis QST713 BC were prepared as described in the previous examples. […] Combinations of Bacillus subtilis QST713 BC with 3% (w/w) ANS or 5% (w/w) ANS were also prepared. […] To determine relative amounts of lipopeptides in the combinations samples were centrifuged to obtain the supernatant layer relatively free of spores. It was then filtered and separated on an analytical HPLC column and detected with a mass spectrometer (i.e., via LC-MS).\nPeaks containing lipopeptides were identified by analysis of mass to charge (m/z) ratios. For example, “Iturin_1043_B” corresponds with an iturin peak in which the predominant m/z ratio detected by the mass spectrometer was 1043 corresponding with the molecular formula of C48H74N12O14. Relative quantification was performed by comparing the peak areas in the samples to those in an extract of a Bacillus subtilis QST713 WB used across different experiments as a reference standard.\nFor purposes of comparison, an aliquot of the Bacillus subtilis QST713 WB that was present in the ANS combinations was also analyzed for relative lipopeptides levels. The Bacillus subtilis QST713 WB (the “Extracted” sample in FIG. 2) and a supernatant of the Bacillus subtilis QST713 WB removed after centrifugation (the “Supernatant” sample in FIG. 2) were analyzed via LC-MS. […]"}, "[2]": {"tested_on": "Botrytis cinerea", "assay": "Botrytis cinerea disease control assay on treated plants inoculated with spore suspension", "assay_type": "in vivo", "conditions": "Example 1; bell pepper plants", "protocol": "Subsequently, the plants were inoculated with a spore suspension of Botrytis cinerea. Several days later when disease was evident in the untreated control plants the plants were evaluated for percent disease control. The results shown in Table 1 are the average values of four independent measurements. A relatively high disease pressure affecting 100% of plants in the untreated control group was present. Percent disease control was scored with 0% indicating no difference in disease from the untreated control plants and 100% indicating no observable disease in the plants. […]\nBacillus subtilis QST713 WB and BC were prepared as described in the previous examples. […] Subsequently, the plants were inoculated with a spore suspension of Botrytis cinerea and scored for percent disease control when disease was evident in 100% of the untreated control plants. […]\nBacillus subtilis QST713 WB was prepared as described in the previous examples. […] Four replicate measurements of disease control were evaluated for each treatment, and the average values are presented in the plot shown in FIG. 4.\nEach of the combinations was also evaluated for antifungal activity using the Botrytis cinerea assay described in the previous examples."}},
  "data": [
    {"substance": "sodium diisopropyl naphthalene sulfonate [ANS]", "values": [
      {"measurement": "relative amounts of iturins in the supernatant", "setting": "[1]; 3% ANS in WB compared with 3% Adjuvant 1", "value": "about two to three times greater"},
      {"measurement": "lipopeptides in the supernatants, in words", "setting": "[1]; increase from 3% to 5% of ANS, WB and BC", "value": "corresponding increase of lipopeptides"},
      {"measurement": "antifungal activity / disease control, in words", "setting": "[2]", "value": "no observable disease control"}
    ]}
  ]
}
